Laboratory results reported in US10434147B2, “Treatment type 2 diabetes mellitus patients” (Sanofi-Aventis Deutschland GmbH, priority 2015, dated 2019).

Assays:
[1] = tested on: Patients with Type 2 Diabetes Insufficiently Controlled with Insulin Glargine with or without Metformin; assay: Body weight, 26-week study; type: in vivo, human; conditions: once daily or three times daily; in words
Text: FIG. 6—Graphical study design. ^1 Insulin glargine should be injected subcutaneously once daily at dinner or breakfast time (according to patient's/investigators' preference). […] Meal used for insulin glulisine dosing should remain the same throughout the 26-week treatment period. ^4 Injection of insulin glulisine prior to breakfast, lunch and dinner.
Co-primary endpoints at 26 weeks were (1) non-inferiority (95% CI upper bound <0.4%) in HbA1c reduction with LIXI vs GLU-1 and (2) for LIXI vs GLU-3, either non-inferiority in HbA1c reduction (2a) OR superiority (one-sided α≤0.025) in body weight change (2b). FPG, PPG, IG dose, composite outcomes, AEs, and hypoglycemia were assessed.

[2] = tested on: obese type 2 diabetes mellitus patients poorly controlled with a basal insulin alone or with one to three oral anti-diabetic drugs; assay: 12-week insulin glargine titration (run-in); type: in vivo, human; conditions: 12 weeks titration, optionally with metformin

Substance	Effect of the comparative treatment on body weight [1]	fasting glucose plasma concentration after titration of insulin glargine ([2]; initial reduction from 9.16 mmol/L)	HbA1c after titration of insulin glargine ([2]; initial reduction from 8.51%)
insulin glulisine: prandial insulin, comparative treatment once daily or three times daily	significant weight gain	–	–
Gly(A21)-Arg(B31)-Arg(B32) human insulin [insulin glargine]	–	6.91 mmol/L	7.87%
